Tested on: PC3 cells
Experiment: NAMPT Cell Proliferation Assay
Format: cell-based
Details: Homo sapiens, PC-3, 120 h, 5 days incubation, cell viability by Cell Titer Glo
In short: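 Following overnight attachment in RPMI with 10% heat-inactivated FBS, PC3 cells at 500 per well receive compounds spanning 10 μM down to 1×10^−5 μM. Growth is assessed by luminescent viability read after 5 days.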

Row | SMILES | IC50
1 | O=C(NCc1ccn2ccnc2c1)c1ccc(C2CCN(C(=O)c3cnc(C4CC4)s3)CC2)cc1 [Example 1084, 4-{1-[(2-cyclopropyl-1,3-thiazol-5-yl)carbonyl]piperidin-4-yl}-N-(imidazo[1,2-a]pyridin-7-ylmethyl)benzamide] | 14.8 nM
2 | O=C(NCc1ccn2ccnc2c1)c1ccc(C2CCN(C(=O)c3ccc4scnc4c3)CC2)cc1 [Example 1085, 4-[1-(1,3-benzothiazol-5-ylcarbonyl)piperidin-4-yl]-N-(imidazo[1,2-a]pyridin-7-ylmethyl)benzamide] | 25.6 nM
3 | Cn1ncc2ccc(C(=O)N3CCC(c4ccc(C(=O)NCc5ccn6ccnc6c5)cc4)CC3)cc21 [Example 1086, N-(imidazo[1,2-a]pyridin-7-ylmethyl)-4-{1-[(1-methyl-1H-indazol-6-yl)carbonyl]piperidin-4-yl}benzamide] | 9.93 nM
4 | Cc1nn(C)c(C(=O)N2CCC(c3ccc(C(=O)NCc4ccn5ccnc5c4)cc3)CC2)c1Cl [Example 1087, 4-{1-[(4-chloro-1,3-dimethyl-1H-pyrazol-5-yl)carbonyl]piperidin-4-yl}-N-(imidazo[1,2-a]pyridin-7-ylmethyl)benzamide] | 1.68 nM
5 | CCc1ccc(C(=O)N2CCC(c3ccc(C(=O)NCc4ccn5ccnc5c4)cc3)CC2)nc1 [Example 1088, 4-{1-[(5-ethylpyridin-2-yl)carbonyl]piperidin-4-yl}-N-(imidazo[1,2-a]pyridin-7-ylmethyl)benzamide] | 34.4 nM
6 | N#Cc1cnc(C(=O)N2CCC(c3ccc(C(=O)NCc4ccn5ccnc5c4)cc3)CC2)c(Cl)c1 [Example 1089, 4-{1-[(3-chloro-5-cyanopyridin-2-yl)carbonyl]piperidin-4-yl}-N-(imidazo[1,2-a]pyridin-7-ylmethyl)benzamide] | 8.27 nM
7 | CC1CC(C#N)(C(=O)N2CCC(c3ccc(C(=O)NCc4ccn5ccnc5c4)cc3)CC2)C1 (stereo not shown) [Example 1090, 4-{1-[(1-cyano-3-methylcyclobutyl)carbonyl]piperidin-4-yl}-N-(imidazo[1,2-a]pyridin-7-ylmethyl)benzamide] | 5.42 nM
8 | CCc1c(C(=O)N2CCC(c3ccc(C(=O)NCc4ccn5ccnc5c4)cc3)CC2)nnn1CC [Example 1091, 4-{1-[(1,5-diethyl-1H-1,2,3-triazol-4-yl)carbonyl]piperidin-4-yl}-N-(imidazo[1,2-a]pyridin-7-ylmethyl)benzamide] | 4.19 nM
9 | COc1csc(C(=O)N2CCC(c3ccc(C(=O)NCc4ccn5ccnc5c4)cc3)CC2)c1 [Example 1092, N-(imidazo[1,2-a]pyridin-7-ylmethyl)-4-{1-[(4-methoxythiophen-2-yl)carbonyl]piperidin-4-yl}benzamide] | 17.7 nM
10 | N#Cc1ccc(C(=O)N2CCC(c3ccc(C(=O)NCc4ccn5ccnc5c4)cc3)CC2)s1 [Example 1093, 4-{1-[(5-cyanothiophen-2-yl)carbonyl]piperidin-4-yl}-N-(imidazo[1,2-a]pyridin-7-ylmethyl)benzamide] | 565 nM
11 | O=C(NCc1ccn2ccnc2c1)c1ccc(C2CCN(C(=O)c3ccc(C4CC4)cn3)CC2)cc1 [Example 1094, 4-{1-[(5-cyclopropylpyridin-2-yl)carbonyl]piperidin-4-yl}-N-(imidazo[1,2-a]pyridin-7-ylmethyl)benzamide] | 68.8 nM
12 | N#Cc1cc(F)c(C(=O)N2CCC(c3ccc(C(=O)NCc4ccn5ccnc5c4)cc3)CC2)c(F)c1 [Example 1095, 4-[1-(4-cyano-2,6-difluorobenzoyl)piperidin-4-yl]-N-(imidazo[1,2-a]pyridin-7-ylmethyl)benzamide] | 4.45 nM
13 | CCn1cc(C(=O)N2CCC(c3ccc(C(=O)NCc4ccn5ccnc5c4)cc3)CC2)c(C(C)C)n1 [Example 1096, 4-(1-{[1-ethyl-3-(propan-2-yl)-1H-pyrazol-4-yl]carbonyl}piperidin-4-yl)-N-(imidazo[1,2-a]pyridin-7-ylmethyl)benzamide] | 2.07 nM
